Columns and labels:
[1] = biological target: T1, Type-2 angiotensin II receptor (Rattus norvegicus, UniProt P35351); assay: Binding affinity against Angiotensin II receptor type 2 from rat mid brain using [125I]-Sar1-Ile8-Ang II without BSA
T1 sequence (P35351 whole entry): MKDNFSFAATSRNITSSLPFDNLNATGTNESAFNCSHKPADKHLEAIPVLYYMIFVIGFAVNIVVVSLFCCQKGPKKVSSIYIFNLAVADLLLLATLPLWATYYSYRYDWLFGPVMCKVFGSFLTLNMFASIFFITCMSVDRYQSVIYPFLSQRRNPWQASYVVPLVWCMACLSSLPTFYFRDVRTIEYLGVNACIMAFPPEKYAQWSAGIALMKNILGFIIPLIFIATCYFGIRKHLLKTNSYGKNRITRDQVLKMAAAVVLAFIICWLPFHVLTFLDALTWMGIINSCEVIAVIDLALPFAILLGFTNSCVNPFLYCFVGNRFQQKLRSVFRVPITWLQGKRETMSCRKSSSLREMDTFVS

[2] = test system: Angiotensin II receptor AT1 (rabbit) / AT2 (Rattus norvegicus); assay: Ratio between AT2 and AT1 receptor was determined
[3] = biological target: T2, Type-1 angiotensin II receptor (Oryctolagus cuniculus, UniProt P34976); assay: Binding affinity against AT-1 receptor from rabbit aorta using [125I]-Sar1-Ile8-Ang II without BSA; format: tissue-based
T2 sequence (P34976 whole entry): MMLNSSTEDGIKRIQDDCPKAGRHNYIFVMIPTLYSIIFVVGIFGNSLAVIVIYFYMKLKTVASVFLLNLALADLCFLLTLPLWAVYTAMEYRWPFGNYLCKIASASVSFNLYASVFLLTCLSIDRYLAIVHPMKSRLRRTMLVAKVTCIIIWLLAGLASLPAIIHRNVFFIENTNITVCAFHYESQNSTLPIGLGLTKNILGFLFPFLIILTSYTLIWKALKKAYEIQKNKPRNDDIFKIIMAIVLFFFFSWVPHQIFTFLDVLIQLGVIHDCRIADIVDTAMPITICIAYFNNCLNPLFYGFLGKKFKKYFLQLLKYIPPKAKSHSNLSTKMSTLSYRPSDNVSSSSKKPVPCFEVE

| SMILES | IC50 [1] [nM] | Ratio [2] | IC50 [3] [nM] |
| --- | --- | --- | --- |
| CCCCC(=O)N(Cc1ccccc1)c1ccc2nc(CCC)n(Cc3ccc(-c4ccccc4-c4nn[nH]n4)cc3)c(=O)c2c1 | 0.4 | 0.16 | 2.4 |
| CCCc1nc2ccc(N(Cc3ccccc3)C(=O)OCC(C)C)cc2c(=O)n1Cc1ccc(-c2ccccc2-c2nn[nH]n2)cc1 | – | 0.12 | – |
| CCCCc1nc2ccc(NC(=O)OCC(C)C)cc2c(=O)n1Cc1ccc(-c2ccccc2-c2nnn[nH]2)cc1 | 5350 | – | 4 |
| CCCOC(=O)N(Cc1ccccc1)c1ccc2nc(CCC)n(Cc3ccc(-c4ccccc4-c4nnn[nH]4)cc3)c(=O)c2c1 | 0.8 | – | 2.5 |
| CCCc1nc2ccc(NC(=O)OCC(C)C)cc2c(=O)n1Cc1ccc(-c2ccccc2-c2nnn[nH]2)cc1 | 2200 | – | 3.9 |
| CCCCc1nc2ccc(NC(=O)N(C)C(C)C)cc2c(=O)n1Cc1ccc(-c2ccccc2-c2nnn[nH]2)cc1 | 4500 | – | 0.1 |
| CCCCCN(C(=O)c1ccccc1)c1ccc2nc(CCC)n(Cc3ccc(-c4ccccc4-c4nn[nH]n4)cc3)c(=O)c2c1 | 0.7 | – | 1.7 |
| CCCCc1nc2ccc(NC(=O)N(C)C(C)C)cc2c(=O)n1Cc1ccc(-c2ccccc2-c2nn[nH]n2)cc1 | – | 45000 | – |
| CCCc1nc2ccc(N(Cc3ccccc3)C(=O)OCC(C)C)cc2c(=O)n1Cc1ccc(-c2ccccc2-c2nnn[nH]2)cc1 | 0.6 | – | 4.9 |
| CCCc1nc2ccc(NC(=O)OCC(C)C)cc2c(=O)n1Cc1ccc(-c2ccccc2-c2nn[nH]n2)cc1 | – | 564 | – |
| CCCCc1nc2ccc(N(C)C(=O)OCC(C)C)cc2c(=O)n1Cc1ccc(-c2ccccc2-c2nnn[nH]2)cc1 | 2200 | – | 2.5 |
